According to the kinase profiling compilation of Christmann-Franck et al. (2016):

Columns and labels:
Test in all cases: radiometric filter-binding kinase assay, Kinase HotSpot
Conditions in all cases: compound 0.5 µM; ATP 10 µM
ACVR1 (human) = ACVR1 (human) (UniProt Q04771)
ADRBK1 (human) = ADRBK1 (human) (UniProt P25098)
AURKA (human) = AURKA (human) (UniProt O14965)
AURKC (human) = AURKC (human) (UniProt Q9UQB9)
BRSK1 (human) = BRSK1 (human) (UniProt Q8TDC3)
CAMK2G (human) = CAMK2G (human) (UniProt Q13555)
CDC42BPB (human) = CDC42BPB (human) (UniProt Q9Y5S2)
CDK2 CCNA2 (human) = CDK2 CCNA2 (human) (UniProt P24941+P20248)
CDK5 CDK5R1 p25 (human) = CDK5 CDK5R1 p25 (human) (UniProt Q00535+Q15078)
CLK4 (human) = CLK4 (human) (UniProt Q9HAZ1)
CSNK1A1 (human) = CSNK1A1 (human) (UniProt P48729)
CSNK1E (human) = CSNK1E (human) (UniProt P49674)
CSNK1G3 (human) = CSNK1G3 (human) (UniProt Q9Y6M4)
DAPK3 (human) = DAPK3 (human) (UniProt O43293)
DMPK (human) = DMPK (human) (UniProt Q09013)
DMPK (human), sequence (Q09013 whole entry, looked up): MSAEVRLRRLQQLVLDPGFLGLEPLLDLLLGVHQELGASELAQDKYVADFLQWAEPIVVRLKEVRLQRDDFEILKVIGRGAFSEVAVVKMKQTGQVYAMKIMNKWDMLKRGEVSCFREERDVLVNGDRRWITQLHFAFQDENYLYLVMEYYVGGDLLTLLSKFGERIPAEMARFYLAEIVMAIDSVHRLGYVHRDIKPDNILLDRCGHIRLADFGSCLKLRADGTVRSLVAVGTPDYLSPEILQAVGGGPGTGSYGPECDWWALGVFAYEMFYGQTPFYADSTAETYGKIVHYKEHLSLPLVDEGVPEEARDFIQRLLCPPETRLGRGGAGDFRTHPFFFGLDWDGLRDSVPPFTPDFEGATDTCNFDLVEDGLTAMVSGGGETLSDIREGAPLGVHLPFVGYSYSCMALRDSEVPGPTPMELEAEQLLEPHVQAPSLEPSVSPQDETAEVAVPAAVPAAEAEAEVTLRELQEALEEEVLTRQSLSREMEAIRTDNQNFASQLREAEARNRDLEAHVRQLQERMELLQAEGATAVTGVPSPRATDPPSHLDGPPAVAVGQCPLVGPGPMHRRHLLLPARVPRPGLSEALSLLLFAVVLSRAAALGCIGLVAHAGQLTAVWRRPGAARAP

DYRK4 (human) = DYRK4 (human) (UniProt Q9NR20)
EPHA1 (human) = EPHA1 (human) (UniProt P21709)
ERBB4 (human) = ERBB4 (human) (UniProt Q15303)
FGFR1 (human) = FGFR1 (human) (UniProt P11362)
FGFR4 (human) = FGFR4 (human) (UniProt P22455)
GSK3A (human) = GSK3A (human) (UniProt P49840)
MAP3K3 (human) = MAP3K3 (human) (UniProt Q99759)
MAP3K8 (human) = MAP3K8 (human) (UniProt P41279)
MKNK2 (human) = MKNK2 (human) (UniProt Q9HBH9)
MYLK (human) = MYLK (human) (UniProt Q15746)
MYLK2 (human) = MYLK2 (human) (UniProt Q9H1R3)
PAK3 (human) = PAK3 (human) (UniProt O75914)
PIM3 (human) = PIM3 (human) (UniProt Q86V86)
PRKACA (human) = PRKACA (human) (UniProt P17612)
PTK2 (human) = PTK2 (human) (UniProt Q05397)
RAF1 (human) = RAF1 (human) (UniProt P04049)
RAF1 (human), sequence (P04049 whole entry, looked up): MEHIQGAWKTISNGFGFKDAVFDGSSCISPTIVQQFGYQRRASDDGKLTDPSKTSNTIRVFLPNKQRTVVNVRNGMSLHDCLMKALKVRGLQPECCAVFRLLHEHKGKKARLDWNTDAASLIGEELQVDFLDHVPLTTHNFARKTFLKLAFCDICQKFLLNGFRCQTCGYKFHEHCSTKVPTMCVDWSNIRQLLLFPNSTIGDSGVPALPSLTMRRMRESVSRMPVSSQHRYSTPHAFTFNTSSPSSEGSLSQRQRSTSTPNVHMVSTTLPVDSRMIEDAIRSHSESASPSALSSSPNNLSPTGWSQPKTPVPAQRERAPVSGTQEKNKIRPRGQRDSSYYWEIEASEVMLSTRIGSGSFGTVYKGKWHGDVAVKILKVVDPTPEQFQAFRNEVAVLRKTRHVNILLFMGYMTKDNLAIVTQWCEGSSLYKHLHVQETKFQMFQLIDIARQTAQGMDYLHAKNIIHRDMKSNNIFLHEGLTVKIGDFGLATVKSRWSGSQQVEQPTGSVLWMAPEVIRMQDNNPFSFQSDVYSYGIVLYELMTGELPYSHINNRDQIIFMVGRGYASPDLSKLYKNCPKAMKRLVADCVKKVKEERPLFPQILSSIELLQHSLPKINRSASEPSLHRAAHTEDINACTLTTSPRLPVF

RIPK2 (human) = RIPK2 (human) (UniProt O43353)
RIPK2 (human), sequence (O43353 whole entry, looked up): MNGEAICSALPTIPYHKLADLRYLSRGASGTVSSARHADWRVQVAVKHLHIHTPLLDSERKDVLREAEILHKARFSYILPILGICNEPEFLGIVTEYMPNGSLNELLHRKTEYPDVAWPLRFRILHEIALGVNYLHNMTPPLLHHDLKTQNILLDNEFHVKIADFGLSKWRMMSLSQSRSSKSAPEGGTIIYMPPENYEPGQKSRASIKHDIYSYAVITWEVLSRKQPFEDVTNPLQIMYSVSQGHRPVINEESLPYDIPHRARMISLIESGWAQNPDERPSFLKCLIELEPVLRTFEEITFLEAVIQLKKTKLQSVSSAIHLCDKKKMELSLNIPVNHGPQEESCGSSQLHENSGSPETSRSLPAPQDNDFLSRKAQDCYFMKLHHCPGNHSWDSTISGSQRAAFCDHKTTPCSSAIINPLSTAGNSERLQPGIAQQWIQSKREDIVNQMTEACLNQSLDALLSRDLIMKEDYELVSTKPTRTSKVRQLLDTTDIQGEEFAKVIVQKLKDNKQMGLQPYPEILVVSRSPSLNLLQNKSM

ROS1 (human) = ROS1 (human) (UniProt P08922)
ROS1 (human), sequence (P08922 whole entry, looked up): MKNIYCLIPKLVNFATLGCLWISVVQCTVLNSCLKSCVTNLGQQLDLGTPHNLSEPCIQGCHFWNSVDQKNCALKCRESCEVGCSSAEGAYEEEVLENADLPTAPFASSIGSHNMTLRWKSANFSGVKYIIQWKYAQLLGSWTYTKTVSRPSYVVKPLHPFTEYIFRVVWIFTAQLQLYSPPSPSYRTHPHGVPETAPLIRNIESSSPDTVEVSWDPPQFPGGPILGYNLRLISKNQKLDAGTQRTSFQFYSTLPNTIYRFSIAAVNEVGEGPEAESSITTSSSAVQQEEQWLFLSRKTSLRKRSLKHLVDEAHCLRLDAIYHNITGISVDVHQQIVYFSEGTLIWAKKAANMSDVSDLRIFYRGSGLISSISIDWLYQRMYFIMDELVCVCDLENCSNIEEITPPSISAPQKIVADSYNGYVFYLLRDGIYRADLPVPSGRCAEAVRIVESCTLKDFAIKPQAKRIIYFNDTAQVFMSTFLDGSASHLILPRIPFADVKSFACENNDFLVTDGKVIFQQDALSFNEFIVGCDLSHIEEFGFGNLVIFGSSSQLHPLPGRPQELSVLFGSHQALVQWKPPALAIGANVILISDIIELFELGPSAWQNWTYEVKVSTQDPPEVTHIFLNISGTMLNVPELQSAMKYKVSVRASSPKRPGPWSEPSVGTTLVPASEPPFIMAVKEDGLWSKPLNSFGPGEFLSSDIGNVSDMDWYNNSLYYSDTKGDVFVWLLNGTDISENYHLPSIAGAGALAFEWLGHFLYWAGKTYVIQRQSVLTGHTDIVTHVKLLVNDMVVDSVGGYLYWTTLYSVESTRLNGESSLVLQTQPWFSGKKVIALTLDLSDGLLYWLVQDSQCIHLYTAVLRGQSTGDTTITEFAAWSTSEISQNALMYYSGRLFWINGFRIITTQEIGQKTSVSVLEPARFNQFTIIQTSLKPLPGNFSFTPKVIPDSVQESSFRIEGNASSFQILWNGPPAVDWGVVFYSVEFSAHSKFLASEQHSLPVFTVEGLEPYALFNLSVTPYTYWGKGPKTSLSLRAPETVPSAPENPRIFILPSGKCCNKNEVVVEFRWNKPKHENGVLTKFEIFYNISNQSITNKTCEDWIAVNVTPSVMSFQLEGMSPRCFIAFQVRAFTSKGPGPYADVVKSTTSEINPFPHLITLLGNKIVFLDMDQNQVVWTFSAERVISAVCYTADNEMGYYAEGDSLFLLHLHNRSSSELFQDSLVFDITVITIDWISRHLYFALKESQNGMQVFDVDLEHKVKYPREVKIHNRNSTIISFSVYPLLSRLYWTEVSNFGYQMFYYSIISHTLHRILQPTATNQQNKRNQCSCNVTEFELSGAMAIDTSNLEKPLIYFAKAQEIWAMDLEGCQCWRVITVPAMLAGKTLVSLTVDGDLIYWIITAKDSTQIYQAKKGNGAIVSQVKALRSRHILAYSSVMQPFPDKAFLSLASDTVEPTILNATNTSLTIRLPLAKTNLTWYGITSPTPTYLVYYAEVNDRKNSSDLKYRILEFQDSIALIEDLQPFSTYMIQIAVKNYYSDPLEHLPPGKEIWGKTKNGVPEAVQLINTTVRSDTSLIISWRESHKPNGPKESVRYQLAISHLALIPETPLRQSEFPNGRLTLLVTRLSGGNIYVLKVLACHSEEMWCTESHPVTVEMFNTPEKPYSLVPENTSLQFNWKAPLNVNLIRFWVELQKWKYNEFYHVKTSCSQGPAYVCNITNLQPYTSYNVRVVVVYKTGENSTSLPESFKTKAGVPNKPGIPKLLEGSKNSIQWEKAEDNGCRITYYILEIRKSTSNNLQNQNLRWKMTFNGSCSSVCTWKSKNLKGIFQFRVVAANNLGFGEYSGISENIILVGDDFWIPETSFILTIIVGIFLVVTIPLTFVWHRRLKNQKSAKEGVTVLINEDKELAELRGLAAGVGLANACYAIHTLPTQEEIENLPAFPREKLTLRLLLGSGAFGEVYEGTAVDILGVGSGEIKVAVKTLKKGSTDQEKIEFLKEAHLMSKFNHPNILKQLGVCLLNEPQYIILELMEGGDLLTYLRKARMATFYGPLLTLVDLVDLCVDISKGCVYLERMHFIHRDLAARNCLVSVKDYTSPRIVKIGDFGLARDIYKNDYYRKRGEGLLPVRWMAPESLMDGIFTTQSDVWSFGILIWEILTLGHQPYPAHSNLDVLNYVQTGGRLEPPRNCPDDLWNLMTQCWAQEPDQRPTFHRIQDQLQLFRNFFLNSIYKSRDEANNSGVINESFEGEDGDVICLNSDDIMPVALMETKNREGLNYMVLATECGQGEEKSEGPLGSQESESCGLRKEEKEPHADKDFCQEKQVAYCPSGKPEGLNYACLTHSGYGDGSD

RPS6KA5 KD2 (human) = RPS6KA5 KD2 (human) (UniProt O75582)
RPS6KB2 (human) = RPS6KB2 (human) (UniProt Q9UBS0)
SRPK1 (human) = SRPK1 (human) (UniProt Q96SB4)
TEC (human) = TEC (human) (UniProt P42680)
TGFBR1 (human) = TGFBR1 (human) (UniProt P36897)
ULK1 (human) = ULK1 (human) (UniProt O75385)
YES1 (human) = YES1 (human) (UniProt P07947)
NUAK1 (human) = NUAK1 (human) (UniProt O60285)
RPS6KA6 KD1 KD2 (human) = RPS6KA6 KD1 KD2 (human) (UniProt Q9UK32)

ACVR1 (human), sequence (Q04771 whole entry, looked up): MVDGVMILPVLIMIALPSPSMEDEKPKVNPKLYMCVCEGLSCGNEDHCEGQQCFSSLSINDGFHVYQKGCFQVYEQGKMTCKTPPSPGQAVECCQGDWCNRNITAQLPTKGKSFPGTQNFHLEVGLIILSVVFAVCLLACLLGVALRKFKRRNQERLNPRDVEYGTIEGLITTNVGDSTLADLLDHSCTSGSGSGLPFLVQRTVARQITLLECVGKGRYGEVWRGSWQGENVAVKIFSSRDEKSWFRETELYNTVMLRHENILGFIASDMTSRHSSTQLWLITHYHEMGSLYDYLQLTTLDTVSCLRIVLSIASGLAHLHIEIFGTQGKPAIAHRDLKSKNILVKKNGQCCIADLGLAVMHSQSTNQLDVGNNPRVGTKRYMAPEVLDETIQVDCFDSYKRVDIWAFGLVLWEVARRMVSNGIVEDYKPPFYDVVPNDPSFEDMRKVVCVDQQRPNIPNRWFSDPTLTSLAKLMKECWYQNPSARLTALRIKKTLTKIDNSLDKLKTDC

Structure (SMILES)	residual activity (ACVR1 (human))	residual activity (ADRBK1 (human))	residual activity (AURKA (human))	residual activity (AURKC (human))	residual activity (CAMK2G (human))	residual activity (CDC42BPB (human))	residual activity (CDK2 CCNA2 (human))	residual activity (CDK5 CDK5R1 p25 (human))	residual activity (CLK4 (human))	residual activity (CSNK1A1 (human))	residual activity (CSNK1G3 (human))	residual activity (DAPK3 (human))	residual activity (DMPK (human))	residual activity (DYRK4 (human))	residual activity (EPHA1 (human))	residual activity (FGFR1 (human))	residual activity (FGFR4 (human))	residual activity (MAP3K3 (human))	residual activity (MAP3K8 (human))	residual activity (MYLK (human))	also measured
COc1ccc(Cl)cc1NC(=O)Nc1cc(C)nc2ccccc12	76.2%	100%	93.4%	99.9%	91.6%	94.4%	98.6%	105%	108%	101%	95.7%	100%	103%	98.9%	88.6%	86.1%	102%	111%	99.5%	95.7%	residual activity (BRSK1 (human)): 92.8%; residual activity (CSNK1E (human)): 86.4%; residual activity (ERBB4 (human)): 97.8%; residual activity (GSK3A (human)): 124%; residual activity (MKNK2 (human)): 90.3%; residual activity (MYLK2 (human)): 99.3%; residual activity (PAK3 (human)): 98.9%; residual activity (PIM3 (human)): 97.6%; residual activity (PRKACA (human)): 101%; residual activity (PTK2 (human)): 97.3%; residual activity (RAF1 (human)): 94.8%; residual activity (RIPK2 (human)): 82.7%; residual activity (ROS1 (human)): 92.5%; residual activity (RPS6KA5 KD2 (human)): 88.4%; residual activity (RPS6KB2 (human)): 106%; residual activity (SRPK1 (human)): 82.5%; residual activity (TEC (human)): 110%; residual activity (TGFBR1 (human)): 99.1%; residual activity (ULK1 (human)): 91.2%; residual activity (YES1 (human)): 90.1%
Fc1ccc(-c2nc3n(c2-c2ccncc2)CCS3)cc1	94.2%	102%	92.1%	102%	90.5%	115%	101%	98.2%	106%	58.8%	97.9%	100%	102%	106%	98.2%	93.4%	82.8%	100%	88.1%	105%	residual activity (BRSK1 (human)): 93.9%; residual activity (CSNK1E (human)): 20%; residual activity (ERBB4 (human)): 83%; residual activity (GSK3A (human)): 116%; residual activity (MKNK2 (human)): 84.9%; residual activity (MYLK2 (human)): 101%; residual activity (NUAK1 (human)): 98.6%; residual activity (PAK3 (human)): 104%; residual activity (PIM3 (human)): 105%; residual activity (PTK2 (human)): 102%; residual activity (RAF1 (human)): 91.1%; residual activity (RIPK2 (human)): 84.7%; residual activity (ROS1 (human)): 95.8%; residual activity (RPS6KA6 KD1 KD2 (human)): 115%; residual activity (RPS6KB2 (human)): 85.6%; residual activity (SRPK1 (human)): 100%; residual activity (TEC (human)): 130%; residual activity (TGFBR1 (human)): 106%; residual activity (ULK1 (human)): 82.6%; residual activity (YES1 (human)): 99.4%
CO[C@@H]1[C@H](N(C)C(=O)c2ccccc2)C[C@H]2O[C@]1(C)n1c3ccccc3c3c4c(c5c6ccccc6n2c5c31)C(=O)NC4	95.5%	102%	4.48%	12%	43.9%	95.9%	66.6%	73.3%	22.6%	96.2%	95.3%	82.6%	112%	96.4%	93.5%	36.1%	84.2%	31%	99.6%	27.3%	residual activity (NUAK1 (human)): 2.71%; residual activity (PIM3 (human)): 60.8%; residual activity (PRKACA (human)): 34%; residual activity (PTK2 (human)): 87.4%; residual activity (RAF1 (human)): 114%; residual activity (RIPK2 (human)): 82.8%; residual activity (ROS1 (human)): 6.53%; residual activity (RPS6KA5 KD2 (human)): 13.2%; residual activity (RPS6KA6 KD1 KD2 (human)): 1.15%; residual activity (RPS6KB2 (human)): 55.9%; residual activity (SRPK1 (human)): 97.1%; residual activity (TEC (human)): 106%; residual activity (TGFBR1 (human)): 98.7%; residual activity (ULK1 (human)): 99.2%; residual activity (YES1 (human)): 20.6%
